Test results as given in article PMC7052193, “Nanobody-enabled monitoring of kappa opioid receptor states” (Nature Communications, 2020).
Values joined by “and” are separate entries in the source; they are usually repeats but may differ in a detail not shown here. Equal values may be shown once. Read-outs that look alike come from different tables or passages of the source.

Tests used:
[1] = target: human wild-type KOR (Homo sapiens, UniProt P41145); assay: [3H]-JDTic association and dissociation assays; assay type: binding
Chain of human wild-type KOR (P41145 whole entry): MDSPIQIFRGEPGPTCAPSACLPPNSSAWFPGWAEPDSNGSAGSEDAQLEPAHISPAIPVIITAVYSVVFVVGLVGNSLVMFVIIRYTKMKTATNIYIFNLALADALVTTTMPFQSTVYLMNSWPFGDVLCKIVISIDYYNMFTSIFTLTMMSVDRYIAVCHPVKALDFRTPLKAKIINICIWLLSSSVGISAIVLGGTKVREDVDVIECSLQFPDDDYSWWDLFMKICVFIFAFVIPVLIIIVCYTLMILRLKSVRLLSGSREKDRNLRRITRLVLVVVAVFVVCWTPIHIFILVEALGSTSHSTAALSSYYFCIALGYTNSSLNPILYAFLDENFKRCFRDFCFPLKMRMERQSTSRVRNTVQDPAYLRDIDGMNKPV
Experimental: Radioligand dissociation and association assays were performed in parallel using the same concentrations of radioligand, membrane preparations and binding buffer (50 mM Tris, 10 mM MgCl2, 0.1 mM EDTA, 0.1% BSA, pH 7.4).
Time points spanned 1 min to 6 h, depending on experimental conditions and radioligand. The association (Kon) and dissociation (Koff) values were calculated using the Prism model:
Association kinetics to obtain kon5 Y=Ymax*(1−e^−kob*X).
Dissociation—one phase exponential decay to obtain koff6 Y=YO−NS*e^−K*X,

[2] = target: T1, KOR (Homo sapiens, UniProt P41145); assay: cAMP inhibition assay (GloSensor); assay type: cell-based
T1 sequence (P41145 whole entry): as above

[3] = target: kappa receptor; design: method as in Thomas JB et al., 2001; conditions: previously reported; ref Thomas JB et al., 2001; read-out: Ki, kappa receptor binding assay; cited from earlier work
[4] = test system: 5-HT2AR; assay type: cell-based, human; conditions: 5-HT2AR-KOR, Log [5-HT]
[5] = test system: 5-HT4R; assay type: cell-based, human; conditions: Gαs, 5-HT4R wt
[6] = test system: 5-HT2AR; assay type: cell-based, human; conditions: 5-HT2AR-KOR, Log [Drug]
[7] = target: HRH2 (Homo sapiens, UniProt P25021); conditions: Log [Histamine]
Chain of HRH2 (Homo sapiens, UniProt P25021) (P25021 whole entry): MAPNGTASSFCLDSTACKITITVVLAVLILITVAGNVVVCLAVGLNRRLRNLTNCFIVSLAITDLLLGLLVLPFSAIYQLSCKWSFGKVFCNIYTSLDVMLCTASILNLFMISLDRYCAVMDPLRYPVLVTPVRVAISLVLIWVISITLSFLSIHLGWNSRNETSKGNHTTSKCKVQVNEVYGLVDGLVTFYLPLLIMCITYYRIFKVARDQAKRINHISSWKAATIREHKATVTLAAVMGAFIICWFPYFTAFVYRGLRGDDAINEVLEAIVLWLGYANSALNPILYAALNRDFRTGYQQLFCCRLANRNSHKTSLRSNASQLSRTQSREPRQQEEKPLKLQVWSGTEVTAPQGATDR

[8] = test system: HRH2; conditions: Log [Histamine]
[9] = test system: HRH2; conditions: Gαs, HRH2 wt
[10] = target: T1, KOR; assay: BRET assay, KOR-Rluc and Nb6-mVenus: Nb6 binding / agonist-induced dissociation; assay type: cell-based
[11] = target: human KOR (Homo sapiens, UniProt P41145, D266A); assay: as above; assay type: cell-based
[12] = target: T2, human KOR (Homo sapiens, UniProt P41145, D266L); assay: as above; assay type: cell-based
T2 construct: expressed in transfected cells; host or cells: HEK 293T
T2 sequence (P41145 whole entry D266L): as the sequence (P41145 whole entry) above, with D266L counted along it

[13] = target: human KOR (Homo sapiens, UniProt P41145, L253A); assay: as above; assay type: cell-based
[14] = target: T3, human KOR (Homo sapiens, UniProt P41145, R257A); assay: as above; assay type: cell-based
T3 construct: expressed in transfected cells; host or cells: HEK 293T
T3 sequence (P41145 whole entry R257A): as the sequence (P41145 whole entry) above, with R257A counted along it

[15] = target: T4, human KOR (Homo sapiens, UniProt P41145, R263A); assay: as above; assay type: cell-based
T4 construct: expressed in transfected cells; host or cells: HEK 293T
T4 sequence (P41145 whole entry R263A): as the sequence (P41145 whole entry) above, with R263A counted along it

[16] = target: human KOR (Homo sapiens, UniProt P41145, R270A); assay: as above; assay type: cell-based
[17] = target: T5, human KOR (Homo sapiens, UniProt P41145, R270M); assay: as above; assay type: cell-based
T5 construct: expressed in transfected cells; host or cells: HEK 293T
T5 sequence (P41145 whole entry R270M): as the sequence (P41145 whole entry) above, with R270M counted along it

[18] = target: T6, human KOR (Homo sapiens, UniProt P41145, R271A); assay: as above; assay type: cell-based
T6 construct: expressed in transfected cells; host or cells: HEK 293T
T6 sequence (P41145 whole entry R271A): as the sequence (P41145 whole entry) above, with R271A counted along it

[19] = target: human KOR (Homo sapiens, UniProt P41145, R274A); assay: as above; assay type: cell-based
[20] = target: T7, 5-HT2AR (Homo sapiens, UniProt P28223); assay type: cell-based; conditions: wild-type 5-HT2AR
T7 construct: expressed in transfected cells; host or cells: HEK 293T
T7 sequence (P28223 whole entry): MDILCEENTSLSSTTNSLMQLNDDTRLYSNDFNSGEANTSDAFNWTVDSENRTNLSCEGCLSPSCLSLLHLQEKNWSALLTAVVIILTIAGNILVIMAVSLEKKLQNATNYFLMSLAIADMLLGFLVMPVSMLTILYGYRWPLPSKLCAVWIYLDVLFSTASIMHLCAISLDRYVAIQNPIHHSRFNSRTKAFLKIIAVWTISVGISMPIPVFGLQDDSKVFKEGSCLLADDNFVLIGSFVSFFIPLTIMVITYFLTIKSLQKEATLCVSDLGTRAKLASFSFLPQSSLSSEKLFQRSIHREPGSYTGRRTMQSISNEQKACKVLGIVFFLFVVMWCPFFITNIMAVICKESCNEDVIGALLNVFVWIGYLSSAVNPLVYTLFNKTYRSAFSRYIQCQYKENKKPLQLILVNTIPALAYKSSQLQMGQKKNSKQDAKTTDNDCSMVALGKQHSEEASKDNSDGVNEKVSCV

[21] = target: T8, ETA (Homo sapiens, UniProt P25101); assay type: cell-based; conditions: wild-type ETA
T8 construct: expressed in transfected cells; host or cells: HEK 293T
T8 sequence (P25101 21-427): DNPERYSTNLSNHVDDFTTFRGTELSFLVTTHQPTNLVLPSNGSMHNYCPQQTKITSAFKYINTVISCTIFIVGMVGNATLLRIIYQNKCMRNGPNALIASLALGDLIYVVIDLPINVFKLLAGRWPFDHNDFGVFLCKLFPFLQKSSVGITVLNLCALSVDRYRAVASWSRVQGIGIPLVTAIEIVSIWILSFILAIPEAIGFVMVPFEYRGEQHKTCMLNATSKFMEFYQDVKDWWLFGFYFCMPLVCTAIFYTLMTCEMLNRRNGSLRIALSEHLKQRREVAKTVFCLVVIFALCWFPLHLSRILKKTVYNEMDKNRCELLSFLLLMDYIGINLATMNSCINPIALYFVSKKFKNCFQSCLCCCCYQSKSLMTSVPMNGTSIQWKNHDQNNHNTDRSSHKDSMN

[22] = test system: GPR111; assay: BRET assay GPR111 / GPR111-KOR and Nb6, basal state; assay type: cell-based
[23] = test system: GPR149; assay type: cell-based; conditions: GPR149-KOR and Nb6
[24] = target: T9, GPR151 (Homo sapiens, UniProt Q8TDV0); assay type: cell-based; conditions: GPR151 and Nb6
T9 construct: expressed in transfected cells; host or cells: HEK 293T
T9 sequence (Q8TDV0 1-419): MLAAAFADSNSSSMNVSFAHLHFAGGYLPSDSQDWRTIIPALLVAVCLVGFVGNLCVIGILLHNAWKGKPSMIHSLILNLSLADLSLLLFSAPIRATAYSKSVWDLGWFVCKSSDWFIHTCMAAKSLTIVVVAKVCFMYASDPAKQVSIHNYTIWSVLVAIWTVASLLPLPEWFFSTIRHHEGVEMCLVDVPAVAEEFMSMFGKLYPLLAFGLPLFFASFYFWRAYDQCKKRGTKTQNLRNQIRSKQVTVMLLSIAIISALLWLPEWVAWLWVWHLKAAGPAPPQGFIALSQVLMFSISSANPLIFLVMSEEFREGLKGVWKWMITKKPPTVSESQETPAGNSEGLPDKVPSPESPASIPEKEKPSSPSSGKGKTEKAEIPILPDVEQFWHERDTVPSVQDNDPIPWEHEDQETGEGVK

[25] = test system: GPR151; assay type: cell-based; conditions: GPR151-KOR and Nb6
[26] = target: T10, human KOR containing C-terminal Renilla luciferase (RLuc8) (human, UniProt P41145); assay: FRET or BRET; kinetic BRET in HEK 293T cells co-expressing KOR-Rluc and Nb6-mVenus or Nb39-mVenus; 10 µM Sal A, then 10 µM JDTic added at the indicated times; t1/2 from one phase exponential decay; conditions: partners not purified
T10 construct: kappa opioid receptor, human, wild type; also called KOR-Rluc; kappa opioid receptor; source: HEK 293T, co-transfected, in live cells; not shown: RLuc8, C-terminal, kept
T10 sequence (P41145 whole entry): as the sequence (P41145 whole entry) above

[27] = read-out: EC50, G protein activation

CC(C)[C@@H](CN1CC[C@@](C)(c2cccc(O)c2)[C@@H](C)C1)NC(=O)[C@H]1Cc2ccc(O)cc2CN1 [JDTic, (3R)-7-hydroxy-N-((1S)-1-[[(3R,4R)-4-(3-hydroxyphenyl)-3,4-dimethyl-1-piperidinyl]methyl]-2-methylpropyl)-1,2,3,4-tetrahydro-3-isoquinolinecarboxamide]
change of binding affinity (Ki) or equilibrium constant (Kd) with KOR in the presence of Nb6 or Nb39 [1]: no significant changes | t1/2 increase, KOR preincubated with Nb6 compared to untreated KOR [1]: ~ 2 fold | BMAX ± SEM ([1]; KOR + Nb6): 468 ± 54 CPM | BMAX ± SEM ([1]; KOR + Nb39): 423 ± 59 CPM | BMAX ± SEM ([1]; KOR wt): 412 ± 46 CPM | activity at KOR, Gi-mediated inhibition of cAMP production [2]: potent inverse agonist | Ki [3]: 0.3 nM

NCCc1c[nH]c2ccc(O)cc12 [5-HT]
Net BRET receptor and Nb6, source data Figure 5b ([4]; M = -4): 4.555 and 4.236 and 2.584 | Net BRET receptor and Nb6, source data Figure 5b ([4]; M = -6): 27.0627 and 18.3518 and 18.7135 | Net BRET receptor and Nb6, source data Figure 5b ([4]; M = -7): 54.7274 and 50.7842 and 46.0256 | Net BRET receptor and Nb6, source data Figure 5b ([4]; M = -8): 79.692 and 81.7337 and 74.4168 | Net BRET receptor and Nb6, source data Figure 5b ([4]; M = -9): 96.2676 and 98.9652 and 90.7989 | Net BRET receptor and Nb6, source data Figure 5b ([4]; M = -10): 102.206 and 99.7037 and 92.1127 | Net BRET receptor and Nb6, source data Figure 5b ([4]; M = -11): 99.4094 and 102.177 and 98.4133 | pEC50 ± SEM, G protein activation [5]: 8.55 ± 0.13 | EC50 [5, 27]: 2.85 nM | Net BRET G protein activation, source data Figure 5c ([6]; M = -5): 4.77 and 5.378 and 5.642 | Net BRET G protein activation, source data Figure 5c ([6]; M = -7): 5.149 and 9.509 and 8.117 | Net BRET G protein activation, source data Figure 5c ([6]; M = -8): 64.908 and 45.488 and 55.524 | Net BRET G protein activation, source data Figure 5c ([6]; M = -9): 89.3557 and 61.3025 and 75.4781 | Net BRET G protein activation, source data Figure 5c ([6]; M = -10): 101.409 and 99.4572 and 101.001 | Net BRET G protein activation, source data Figure 5c ([6]; M = -11): 93.2037 and 102.876 and 98.9921 | Net BRET G protein activation, source data Figure 5c ([6]; M = -12): 99.8736 and 92.5765 and 96.7631

NCCc1c[nH]cn1 [Histamine]
HRH2 wt (Figure S10) ([7]; M -4): 0.035 and 0.037 and 0.032 | HRH2 wt (Figure S10) ([7]; M -5): 0.04 and 0.037 and 0.043 | HRH2 wt (Figure S10) ([7]; M -6): 0.037 and 0.041 and 0.043 | HRH2 wt (Figure S10) ([7]; M -7): 0.041 and 0.036 and 0.042 | HRH2 wt (Figure S10) ([7]; M -8): 0.038 and 0.039 | HRH2 wt (Figure S10) ([7]; M -9): 0.037 and 0.039 and 0.042 | HRH2 wt (Figure S10) ([7]; M -10): 0.036 and 0.04 and 0.031 | HRH2 wt (Figure S10) ([7]; M -11): 0.029 and 0.038 and 0.037 | HRH2-KOR (Figure S10) ([8]; M -4): 5.219 and 6.229 and 8.754 | HRH2-KOR (Figure S10) ([8]; M -8): 49.1583 and 70.3704 | HRH2-KOR (Figure S10) ([8]; M -9): 71.8855 and 67.8451 and 91.0774 | HRH2-KOR (Figure S10) ([8]; M -10): 90.0673 and 96.633 and 108.754 | HRH2-KOR (Figure S10) ([8]; M -11): 95.6229 and 98.6532 and 105.724 | pEC50 ± SEM, G protein activation [9]: 7.64 ± 0.10 | EC50 [9, 27]: 23.2 nM

B1: Nb6-mVenus (VHH)
VHH: QVQLQESGGGLVQAGESLRLSCAASGTIFRLYDMGWYRRVSGNQRELVASITSGGSTKYGDSVKGRFTISRDNAKNTVYLQMSSLKPEDTAVYYCNAEYRTGIWEELLDGWGQGTQVTVSS
notes: as the chain of m2, nanobody chain of PDB 6VI4; source: HEK 293T, co-transfected, in live cells; not shown: mVenus, C-terminal, kept
Net BRET, KOR mutations with Nb6, source data Figure 3b [10]: 1.21 and 1.208 and 1.235 and 1.249 and 1.256 and 1.272 | Net BRET, KOR mutations with Nb6, source data Figure 3b [11]: 0.1429 and 0.1064 and 0.08886 and 0.09293 | Net BRET, KOR mutations with Nb6, source data Figure 3b [12]: 0.05761 and 0.05183 and 0.0517 and 0.0557 and 0.08302 and 0.08918 | Net BRET, KOR mutations with Nb6, source data Figure 3b [13]: 1.189 and 1.193 and 1.2037 and 1.27 and 1.206 and 1.301 | Net BRET, KOR mutations with Nb6, source data Figure 3b [14]: 1.007 and 0.9978 and 1.013 and 1.028 and 1.043 and 1.085 | Net BRET, KOR mutations with Nb6, source data Figure 3b [15]: 0.9862 and 0.9845 and 1.038 and 1.045 and 1.021 and 1.043 | Net BRET, KOR mutations with Nb6, source data Figure 3b [16]: 0.07102 and 0.06841 and 0.07532 and 0.07378 and 0.08027 and 0.09204 | Net BRET, KOR mutations with Nb6, source data Figure 3b [17]: 0.05686 and 0.05346 and 0.04737 and 0.04878 and 0.05049 and 0.05323 | Net BRET, KOR mutations with Nb6, source data Figure 3b [18]: 1.2246 and 1.2 and 1.237 and 1.199 and 1.227 and 1.2457 | Net BRET, KOR mutations with Nb6, source data Figure 3b [19]: 1.098 and 1.114 and 1.1115 and 1.116 and 1.123 and 1.128 | interaction with Nb6 in the BRET assay [20]: did not display measurable interaction | interaction with Nb6 in the BRET assay [21]: did not display measurable interaction | BRET receptor and Nb6 in basal state, source data Figure 5e [22]: 96.3553 and 106.675 and 85.5388 and 88.3471 | BRET receptor and Nb6 in basal state, source data Figure 5e [23]: 100.397 and 94.0625 and 97.7156 and 109.725 | BRET receptor and Nb6 in basal state, source data Figure 5e [24]: 4.933 and 5.929 and 5.0734 and 5.659 | BRET receptor and Nb6 in basal state, source data Figure 5e [25]: 96.9506 and 102.894 and 103.581 and 99.837 | t1/2 of the decrease in Nb6-KOR BRET after the agonist Sal A [26]: 0.833 ± 0.167 min | t1/2 of the increase of the BRET ratio after JDTic (following Sal A) [26]: 1.25 ± 0.2 min
